Test results from patent publication US20130296228A1, “EFFLUX PUMP INHIBITORS” (priority 2010, published 2013).
Read-outs that look alike come from different tables or passages of the source.

Assays:
P. aeruginosa 23587 [1] = assay: Diameter of zone of inhibition of antimicrobial agents with or without efflux pump inhibitor; type: cell-based
From the text: Since RND efflux pumps operate by utilizing energy in […], metabolic inhibitor, sodium azide brings about MDR RND pump inhibition by causing energy deprivation.

MDR P. aeruginosa = assay: Enhanced killing: viable count over time; type: cell-based; details: for killing effect of the agent individually: quinolone arginine salt 8 μg/ml, ceftazidime 8 and 16 μg/ml
Method: Table 4 results of efflux pump inhibition based cidal synergy between S-(−)-9-Fluoro-8-(4-hydroxy-piperidin-1-yl)-5-methyl-6,7-dihydro-1-oxo-1H,5H-benzo[i,j]quinolizine-2-carboxylic acid L-arginine salt tetrahydrate nd ceftazidime. Potent cidal synergy is observed between S-(−)-9-Fluoro-8-(4-hydroxy-piperidin-1-yl)-5-methyl-6,7-dihydro-1-oxo-1H,5H-benzo[i,j]quinolizine-2-carboxylic acid L-arginine salt tetrahydrate (concentration, 8 μg/ml) and ceftazidime (concentration, 8 and 16 μg/ml). These concentrations are at least 4 times lower than their MIC. […] Thus the efflux pump inhibition based synergy is not just growth inhibitory but also, most importantly, imparts extensive killing of the pathogen.

[2] = system: MDR clinical isolate of P. aeruginosa 2301; assay: Systemic infection in mice, % survival; type: in vivo; details: for % survival: mice; for protection of infected animals, agent individually: quinolone arginine salt 50 mg/kg, ceftazidime 300 mg/kg
P. aeruginosa 23587 [3] = assay: Survival of high density inoculation in MHA medium; type: cell-based; details: high density inoculation 2-5 × 10^9 CFU/ml
P. aeruginosa 2301 [4] = assay: Survival of high density inoculation in MHA medium; type: cell-based; details: high density inoculation 2-5 × 10^9 CFU/ml; 20 mcg/ml in MHA medium
From the text: In a most surprising manner, the combination of ceftazidime and azithromycin and tigecycline respectively brought about more than 7 log reduction in the bacterial count as compared to individual effects in highly resistant Pseudomonas strain. Moreover in a very unusual and surprising manner this tremendous bactericidal effect is taking place at concentrations much below than their individual inhibitory concentrations. […] It is also likely that ceftazidime interacts with outer membrane porins and acts as a porin modulator. Bacalum et al. have shown that ceftazidime binds to outer membrane porins with high affinity (Bacalum et al. Romanian. J. Biophys., 19, 105-116, 2009).

[5] = system: highly resistant P. aeruginosa strains; assay: MIC; type: cell-based; details: highly resistant P. aeruginosa strains used for infecting animals
outer membrane porins = details: Bacalum et al. 2009; cited from earlier work
P. aeruginosa 2301 [6] = assay: Diameter of zone of inhibition of antimicrobial agents with or without efflux pump inhibitor; type: cell-based; details: for Diameter of zone of inhibition: P. aeruginosa 2301

CC(C)(O/N=C(\C(=O)N[C@@H]1C(=O)N2C(C(=O)[O-])=C(C[n+]3ccccc3)CS[C@H]12)c1csc(N)n1)C(=O)O [Ceftazidime, ceftazidime]
inhibition of MDR RND efflux pumps, concluded from potentiation (P. aeruginosa 23587 [1]; clinical isolates of P. aeruginosa): inhibit RND pumps | viable count (MDR P. aeruginosa; 8 μg/ml, 0 h): 6.11 Log CFU/ ml | viable count (MDR P. aeruginosa; 8 μg/ml, 24 h): 8.64 Log CFU/ ml | viable count (MDR P. aeruginosa; 8 μg/ml, 48 h): 9.3 Log CFU/ ml | viable count (MDR P. aeruginosa; 16 μg/ml, 0 h): 6.11 Log CFU/ ml | viable count (MDR P. aeruginosa; 16 μg/ml, 24 h): 5.30 Log CFU/ ml | viable count (MDR P. aeruginosa; 16 μg/ml, 48 h): 9.2 Log CFU/ ml | killing effect of the agent individually (MDR P. aeruginosa): ineffective | % survival ([2]; Table 5, 300 mg/kg BID × 1 day, Subcutaneous): 16.6% | % survival ([2]; Table 7, 100 mg/kg BID × 1 day, Oral): 16.6% | % survival ([2]; Table 7, 200 mg/kg BID × 1 day, Oral): 16.6% | protection of infected animals, agent individually [2]: could not protect | CFU/ml at 48 h (P. aeruginosa 23587 [3]; 64 mcg/ml in MHA medium): >5 × 10^9 CFU/ml | CFU/ml at 48 h (P. aeruginosa 2301 [4]): >5 × 10^9 CFU/ml | MIC ([5]; Pseudomonas aeruginosa, read-out: MIC): > 32 mg/L | binding to outer membrane porins (outer membrane porins): high affinity

C[C@H]1CCc2c(N3CCC(O)CC3)c(F)cc3c(=O)c(C(=O)O)cn1c23.N=C(N)NCCC[C@H](N)C(=O)O.O.O.O.O [S-(−)-9-Fluoro-8-(4-hydroxy-piperidin-1-yl)-5-methyl-6,7-dihydro-1-oxo-1H,5H-benzo[i,j]quinolizine-2-carboxylic acid L-arginine salt tetrahydrate]
change of activity on addition of sodium azide (P. aeruginosa 23587 [1]): potentiated | change of activity in the presence of cefepime and ceftazidime (P. aeruginosa 23587 [1]; Example 3): significant potentiation | Diameter of zone of inhibition (P. aeruginosa 23587 [1]; Table 1, P. aeruginosa 23587, +PAN (20 μg/ml), 4 μg/well): 30 m.m. | Diameter of zone of inhibition (P. aeruginosa 23587 [1]; Table 1, P. aeruginosa 23587, +PAN (20 μg/ml), 8 μg/well): 34 m.m. | Diameter of zone of inhibition (P. aeruginosa 23587 [1]; Table 1, P. aeruginosa 23587, +PAN (20 μg/ml), 16 μg/well): 35 m.m. | Diameter of zone of inhibition (P. aeruginosa 23587 [1]; Table 1, P. aeruginosa 23587, Control, 4 μg/well): Nil | Diameter of zone of inhibition (P. aeruginosa 23587 [1]; Table 1, P. aeruginosa 23587, Control, 8 μg/well): 12 m.m. | Diameter of zone of inhibition (P. aeruginosa 23587 [1]; Table 1, P. aeruginosa 23587, Control, 16 μg/well): 15 m.m. | Diameter of zone of inhibition (P. aeruginosa 23587 [1]; Table 2, P. aeruginosa (23587), +Reserpine (25 μg/ml), 8 μg/well): Nil | Diameter of zone of inhibition (P. aeruginosa 23587 [1]; Table 2, P. aeruginosa (23587), +Reserpine (25 μg/ml), 16 μg/well): 11 m.m. | Diameter of zone of inhibition (P. aeruginosa 23587 [1]; Table 2, P. aeruginosa (23587), +Reserpine (25 μg/ml), 32 μg/well): 15 m.m. | Diameter of zone of inhibition (P. aeruginosa 23587 [1]; Table 2, P. aeruginosa (23587), +sodium azide (10 μg/ml), 8 μg/well): 12 m.m. | Diameter of zone of inhibition (P. aeruginosa 23587 [1]; Table 2, P. aeruginosa (23587), +sodium azide (10 μg/ml), 16 μg/well): 15 m.m. | Diameter of zone of inhibition (P. aeruginosa 23587 [1]; Table 2, P. aeruginosa (23587), +sodium azide (10 μg/ml), 32 μg/well): 20 m.m. | Diameter of zone of inhibition (P. aeruginosa 23587 [1]; Table 2, P. aeruginosa (23587), Control, 8 μg/well): Nil | Diameter of zone of inhibition (P. aeruginosa 23587 [1]; Table 2, P. aeruginosa (23587), Control, 16 μg/well): 11 m.m. | Diameter of zone of inhibition (P. aeruginosa 23587 [1]; Table 2, P. aeruginosa (23587), Control, 32 μg/well): 15 m.m. | Diameter of zone of inhibition (P. aeruginosa 23587 [1]; Table 3, P. aeruginosa 23587, +Cefepime (1 μg/ml), 8 μg/Well): 12 m.m. | Diameter of zone of inhibition (P. aeruginosa 23587 [1]; Table 3, P. aeruginosa 23587, +Cefepime (1 μg/ml), 16 μg/Well): 18 m.m. | Diameter of zone of inhibition (P. aeruginosa 23587 [1]; Table 3, P. aeruginosa 23587, +Cefepime (1 μg/ml), 32 μg/Well): 24 m.m. | Diameter of zone of inhibition (P. aeruginosa 23587 [1]; Table 3, P. aeruginosa 23587, +Ceftazidime (1 μg/ml), 8 μg/Well): 20 m.m. | Diameter of zone of inhibition (P. aeruginosa 23587 [1]; Table 3, P. aeruginosa 23587, +Ceftazidime (1 μg/ml), 16 μg/Well): 25 m.m. | Diameter of zone of inhibition (P. aeruginosa 23587 [1]; Table 3, P. aeruginosa 23587, +Ceftazidime (1 μg/ml), 32 μg/Well): 33 m.m. | Diameter of zone of inhibition (P. aeruginosa 23587 [1]; Table 3, P. aeruginosa 23587, Control, 8 μg/Well): 9 m.m. | Diameter of zone of inhibition (P. aeruginosa 23587 [1]; Table 3, P. aeruginosa 23587, Control, 16 μg/Well): 14.5 m.m. | Diameter of zone of inhibition (P. aeruginosa 23587 [1]; Table 3, P. aeruginosa 23587, Control, 32 μg/Well): 19.5 m.m. | change of activity in the presence of PAN (P. aeruginosa 23587 [1]; clinical isolates P. aeruginosa 23587 and P. aeruginosa 2301): Synergistic enhancement | change of activity in the presence of cefepime and ceftazidime (P. aeruginosa 2301 [6]; Example 6): significant potentiation | Diameter of zone of inhibition (P. aeruginosa 2301 [6]; Table 1, +PAN (20 μg/ml), 4 μg/well): 25 m.m. | Diameter of zone of inhibition (P. aeruginosa 2301 [6]; Table 1, +PAN (20 μg/ml), 8 μg/well): 32 m.m. | Diameter of zone of inhibition (P. aeruginosa 2301 [6]; Table 1, +PAN (20 μg/ml), 16 μg/well): 38 m.m. | Diameter of zone of inhibition (P. aeruginosa 2301 [6]; Table 1, Control, 4 μg/well): 15.5 m.m. | Diameter of zone of inhibition (P. aeruginosa 2301 [6]; Table 1, Control, 8 μg/well): 20 m.m. | Diameter of zone of inhibition (P. aeruginosa 2301 [6]; Table 1, Control, 16 μg/well): 23.5 m.m. | Diameter of zone of inhibition (P. aeruginosa 2301 [6]; Table 6, +Cefepime (2 μg/ml), 8 μg/Well): 12 m.m. | Diameter of zone of inhibition (P. aeruginosa 2301 [6]; Table 6, +Cefepime (2 μg/ml), 16 μg/Well): 18 m.m. | Diameter of zone of inhibition (P. aeruginosa 2301 [6]; Table 6, +Cefepime (2 μg/ml), 32 μg/Well): 24 m.m. | Diameter of zone of inhibition (P. aeruginosa 2301 [6]; Table 6, +Ceftazidime (0.5 μg/ml), 8 μg/Well): 20 m.m. | Diameter of zone of inhibition (P. aeruginosa 2301 [6]; Table 6, +Ceftazidime (0.5 μg/ml), 16 μg/Well): 25 m.m. | Diameter of zone of inhibition (P. aeruginosa 2301 [6]; Table 6, +Ceftazidime (0.5 μg/ml), 32 μg/Well): 33 m.m. | Diameter of zone of inhibition (P. aeruginosa 2301 [6]; Table 6, Control, 8 μg/Well): 9 m.m. | Diameter of zone of inhibition (P. aeruginosa 2301 [6]; Table 6, Control, 16 μg/Well): 14.5 m.m. | Diameter of zone of inhibition (P. aeruginosa 2301 [6]; Table 6, Control, 32 μg/Well): 19.5 m.m. | viable count (MDR P. aeruginosa; 8 μg/ml, 0 h): 6.11 Log CFU/ ml | viable count (MDR P. aeruginosa; 8 μg/ml, 24 h): 8.64 Log CFU/ ml | viable count (MDR P. aeruginosa; 8 μg/ml, 48 h): 9.4 Log CFU/ ml | viable count (MDR P. aeruginosa; 16 μg/ml, 0 h): 6.11 Log CFU/ ml | viable count (MDR P. aeruginosa; 16 μg/ml, 24 h): 4.30 Log CFU/ ml | viable count (MDR P. aeruginosa; 16 μg/ml, 48 h): <3.0 Log CFU/ ml | killing effect of the agent individually (MDR P. aeruginosa): ineffective | % survival ([2]; Table 5, 50 mg/kg BID × 1 day, Subcutaneous): 0% | % survival ([2]; Table 5, 75 mg/kg BID × 1 day, Subcutaneous): 33.3% | % survival ([2]; Table 5, 100 mg/kg BID × 1 day, Subcutaneous): 100% | protection of infected animals, agent individually [2]: could not protect | CFU/ml at 48 h (P. aeruginosa 23587 [3]; 32 mcg/ml in MHA medium): >5 × 10^9 CFU/ml | MIC [5]: 16 mg/L
